According to patent publication US5182265A, “Pharmacologically active peptide derivatives and pharmaceutical preparations containing them” (SPA Societa' Prodotti Antibiotici S.p.A., priority 1989, dated 1993):
Counter-ions that a name gives are not always drawn. Where a SMILES comes first, the peptide text is derived from it.

Assay: Water solubility of the salts (qualitative remark in the preparation)
Format: physicochemical
Conditions: qualitative description of the isolated salt
Method: H-Thr-Asp-D-Tyr-OH is dissolved in 5 volumes of water, and the solution is added with an equivalent amount of 1N HCl.
The solution is concentrated to small volume under vacuum and added with acetone.

SMILES | water solubility of the isolated powder
C[C@@H](O)[C@H](N)C(=O)N[C@@H](CC(=O)O)C(=O)N[C@@H](Cc1ccc(O)cc1)C(=O)O [H-Thr-Asp-Tyr-OH lysine salt] (H-Thr-Asp-Tyr-OH) | freely water soluble
C[C@@H](O)[C@H](N)C(=O)N[C@@H](CC(=O)O)C(=O)N[C@H](Cc1ccc(O)cc1)C(=O)O [H-Thr-Asp-D-Tyr-OH hydrochloride] (HELM PEPTIDE1{T.D.[dY]}$$$$V2.0) | very water soluble
